Assay [1] in a line: Surface plasmon resonance binding to DMPC liposomes. As to conditions: SPR. The procedure:
(§1) Model membranes composed of zwitterionic and anionic phospholipids were prepared as previously described (Bender et al., 2004). Briefly, DMPC and DMPG were dissolved in dry chloroform and chloroform/methanol (2:1) respectively to give 10 mg/ml solutions. […] The solution was sonicated in an ultrasonic bath for 20 min. Eight cycles of freeze/thawing was followed by extrusion through polycarbonate filters, first 100 nm (21 times) then 50 nm pore diameter (21 times), using a Lipofast apparatus (Avestin, Ottawa, Canada) and SUVs were used immediately. SPR was carried out on a BIAcore 2000 instrument using Pioneer Sensor Chip L1 and HEPES (HBS-N, Biacore, Upssala, Sweden) as running buffer. The chip surface was cleaned with 40 mM octyl glycoside (30 μl, 10 μl/min) followed liposomes (SUV) (100 μl, 5 μl/min). 10 mM NaOH (40 μl, 10 μl/min) removed any multilamellar vesicles from the surface before injecting the lipopeptide solutions (100 μl, 5 μl/min). The dissociation stage was 1200 sec. […] All SPR experiments were run at 25° C. and all analyses were performed using the BIAevaluation software (Biacore, Uppsala, Sweden). Lipopeptide binding was expressed as the difference in signal between points before sample injection and after dissociation.

The test system of the next assay is S. pneumoniae. In words: Standard disk susceptibility testing (NCCLS), S. pneumoniae. The assay is classed as cell-based. The procedure:
(§2) The synthetic C1 peptide and its analogues were tested using Standard disk susceptibility testing by National Committee for […] Laboratory Standards (NCCLS) against, S. aureus, E. coli and S. pneumoniae. […]

The next assay has as its system E. coli. In words: Standard disk susceptibility testing (NCCLS), E. coli. The assay is classed as cell-based. The protocol:
as §2

Assay [2] is described as follows: Surface plasmon resonance binding to DMPG liposomes. As to conditions: SPR, L1 sensor chip, 50 μM, 25° C. The protocol:
as §1
For orientation: In SPR one partner is held on a chip, and binding of the other changes the refractive index at the surface.

As to `CC(C)C[C@@H]1NC(=O)[C@@H](CC(C)C)NC(=O)[C@H](CCCNC(=N)N)NC(=O)[C@@H](CC(C)C)NC(=O)CNC(=O)[C@@H](C(C)C)NC(=O)[C@H](CCCCN)NC(=O)[C@@H](CC(C)C)NC(=O)[C@H](CC(C)C)NC(=O)[C@@H](CC(C)C)NC1=O` [C1, LDRLDLLDLLDKVDG], the “binding affinity to DMPC model membrane relative to CP” value in assay [1] is “approximately 10 fold”. Also, the “binding to DMPC (zwitterionic) liposomes” value in assay [1] (L1 sensor chip, 50 μM, 25° C.) was “bound much stronger”. In addition, in assay [1] (model membranes), the “binding relative to all the other analogues examined (with the exception of C2)” value is recorded as more than 10 fold. For the same molecule, the “antimicrobial activity, S. pneumoniae” value with S. pneumoniae (peptide 10 μg/ml), in the assay on S. pneumoniae (peptide 100 μg/ml) and with S. pneumoniae (peptide 1000 μg/ml) was “−ve” in each case. The “antimicrobial activity, E. coli” value with E. coli (peptide 10 μg/ml), in the assay on E. coli (peptide 100 μg/ml) and with E. coli (peptide 1000 μg/ml) was “−ve” each time. Besides, the “binding to DMPG (anionic) liposomes” value in assay [2] was “bound much stronger”.

(Values after patent US20120077732A1, “CYCLIC PEPTIDES AND USES THEREOF” (SYDNEY WEST AREA HEALTH SERVICE, priority 2008, published 2012).)
